Results published in patent US8278285B2, “Gastric carcinoma gene ZNF312b, a protein translated from the gene, and a diagnostic kit and a screening method for anticancer agents using the same” (Korea Research Institute of Bioscience and Biotechnology, priority 2007, dated 2012).

Tests used:
[1] = system: ZNF312b gene; assay: ZNF312b gene expression inhibition by siRNA; type: cell-based, human; details: compared among three siRNAs, FIG. 3
Excerpt: To investigate the cell proliferation capacity of the stomach cancer cell line after inhibiting the expression of ZNF312b gene, three kinds of siRNAs [si-ZNF312b-1: 5′-GCA CTC TCT GCA TCT CAA C-3′ (SEQ. ID. NO: 6), si-ZNF312b-2: 5′-GTG TGT GGA AAG GTC TTT A-3′ (SEQ. ID. NO: 7), and si-ZNF312b-3′: 5′-GCA GTT CAA GTG CAA TAT C-3′ (SEQ. ID. NO: 8)] comprising 19 nucleotides of ZNF312b nucleotide sequence (SEQ. ID. NO: 1) were constructed, which were used for the investigation of ZNF312b gene expression inhibition.

[2] = system: K-ras / ERK pathway; assay: Western blotting of cell proliferation signal pathway after ZNF312b inhibition; type: cell-based, human; details: stomach cancer cell line transfected with siRNA, FIG. 24
Experimental: First, lysis buffer A [20 mM HEPES (pH7.5), 150 mM NaCl, 1 mM EDTA, 2 mM EGTA, 1% Triton X-100, 10% glycerol, protease cocktail I, II (Sigma, USA)] was added to the cells, which stood at 4° C. for 20 minutes. The cell lysate was transferred into a new tube, followed by centrifugation at 4° C. at 15,000 rpm for 10 minutes to obtain protein. The cell lysate was heated at 95° C. for 10 minutes after adding 5× sample buffer, resulting in gel loading sample which proceeded to SDS PAGE gel electrophoresis. The protein bands separated according to their molecular weights by the above electrophoresis were transferred onto nitrocellulose membrane by using transfer kit (Bio-Rad, USA), followed by blocking for one hour with 5% skim milk. Next, each antibody [HA antibody for the detection of ZNF312b, and tubulin antibody for the detection of the control tubulin] was treated thereto at 4° C. for 12 hours. The membrane was washed with TBST buffer (0.2% Tween 20), and then treated with a secondary antibody for 1 hour. The membrane was washed with TBST and developed using HRP detection kit (AB frontier, Korea).
To investigate whether the signal pathway system involved in the cell proliferation of stomach cancer cell line was affected by inhibition of ZNF312b gene, the present inventors inhibited the expression of ZNF312b in stomach cancer cell line by transfecting the cell line with si-ZNF312b-1. […]

In the case of “si-ZNF312b-1: siRNA of 19 nucleotides of ZNF312b sequence, 5′-GCA CTC TCT GCA TCT CAA C-3′ (SEQ. ID. NO: 6) (sense GCACTCTCTGCATCTCAAC; listed as DNA, chemistry not given here)”, the “ZNF312b gene expression inhibition” value [1] is reported as “highest inhibition activity”, the “ERK pathway activity (phosphorylation of MEK1/2 and ERK1/2)” value [2] is reported as “inactivation of ERK pathway” and the K-ras expression [2] is reported as “decrease of K-ras expression”.
